Literature values as cited in patent US9044508B2, “Concentrated aqueous azalide formulations” (INSITE VISION CORPORATION, priority 2013, dated 2015).

Settings: aqueous formulation

CC[C@H]1OC(=O)[C@H](C)[C@@H](O[C@H]2C[C@@](C)(OC)[C@@H](O)[C@H](C)O2)[C@H](C)[C@@H](O[C@@H]2O[C@H](C)C[C@H](N(C)C)[C@H]2O)[C@](C)(O)C[C@@H](C)CN(C)[C@H](C)[C@@H](O)[C@]1(C)O [azithromycin, N-methyl-1′-aza-10-deoxo-10-dihydroerythromycin]
pH of maximum stability: about 6.3
